By IC50 is commonly meant the concentration at which inhibition is half-maximal.

This note sets out measurements from patent publication US9085576B2 (AMGEN INC., priority 2013, dated 2015).

One test has as its target Cathepsin D (Cat D) (Homo sapiens (Human), UniProt P07339). Description: In vitro enzymatic Cathepsin D (Cat D) FRET assay. As to conditions: read-out: CatD IC50. The format is biochemical.
Test [1] concerns the target Beta Secretase enzyme (BACE) (Homo sapiens (Human), UniProt P56817). The test is described as follows: In vitro enzymatic BACE FRET assay. In kind it is biochemical. As to conditions: read-out: BACE1 Enzyme assay IC50.
A further test addresses BACE (Homo sapiens (Human), UniProt P56817). Description: In vitro BACE cell-based assay (Aβ40 in conditioned medium, sandwich ELISA). A general note: ELISA stands for enzyme-linked immunosorbent assay.

Structures are written as SMILES.

Beta Secretase enzyme (BACE), sequence (P56817 46-501): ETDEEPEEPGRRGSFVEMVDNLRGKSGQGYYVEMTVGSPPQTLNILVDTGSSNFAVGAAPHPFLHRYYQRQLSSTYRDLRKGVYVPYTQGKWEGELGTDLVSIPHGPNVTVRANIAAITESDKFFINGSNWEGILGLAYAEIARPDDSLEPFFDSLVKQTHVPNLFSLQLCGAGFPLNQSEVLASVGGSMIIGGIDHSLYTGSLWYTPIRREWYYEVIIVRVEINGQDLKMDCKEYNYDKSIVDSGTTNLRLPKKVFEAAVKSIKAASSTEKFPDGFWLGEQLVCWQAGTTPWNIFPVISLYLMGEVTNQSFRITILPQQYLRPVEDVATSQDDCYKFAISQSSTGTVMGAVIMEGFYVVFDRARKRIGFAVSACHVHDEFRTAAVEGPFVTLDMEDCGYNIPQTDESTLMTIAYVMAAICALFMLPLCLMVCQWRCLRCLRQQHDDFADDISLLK
BACE, sequence (P56817 46-501, species assumed): as the sequence (P56817 46-501) above
Cathepsin D (Cat D), sequence (P07339 65-412, species assumed): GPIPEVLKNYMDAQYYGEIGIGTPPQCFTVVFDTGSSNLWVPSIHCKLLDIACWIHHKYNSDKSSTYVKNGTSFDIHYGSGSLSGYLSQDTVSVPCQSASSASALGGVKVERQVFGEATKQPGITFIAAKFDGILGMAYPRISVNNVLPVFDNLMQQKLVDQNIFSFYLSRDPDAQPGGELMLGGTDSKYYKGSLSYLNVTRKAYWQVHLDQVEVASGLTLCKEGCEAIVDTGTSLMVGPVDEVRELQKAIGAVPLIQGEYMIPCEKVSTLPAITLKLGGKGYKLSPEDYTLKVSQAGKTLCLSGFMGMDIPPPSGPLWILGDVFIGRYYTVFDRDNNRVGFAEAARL

Consider `NC1=N[C@](CF)(c2cc(Nc3nccc4cc(Cl)cnc34)ccc2F)[C@H]2C[C@H]2O1` [Example 345, (1R,5S,6R)-5-(5-((3-chloro-1,7-naphthyridin-8-yl)amino)-2-fluorophenyl)-5-(fluoromethyl)-2-oxa-4-azabicyclo[4.1.0]hept-3-en-3-amine], for which the IC50 on Cathepsin D (Cat D) was found to be 282 µM; in test [1] it was 0.0713 µM; on BACE, 0.0543 µM.
In the same order, the values of `N#Cc1cnc2c(Nc3ccc(F)c([C@@]4(CF)N=C(N)O[C@@H]5C[C@@H]54)c3)nccc2c1` [Example 346, 8-((3-((1R,5S,6R)-3-amino-5-(fluoromethyl)-2-oxa-4-azabicyclo[4.1.0]hept-3-en-5-yl)-4-fluorophenyl)amino)-1,7-naphthyridine-3-carbonitrile] are 205 µM, 0.0539 µM and 0.0176 µM.
Consider `NC1=N[C@](CF)(c2cc(Nc3ncnc4cc(Cl)cnc34)ccc2F)[C@H]2C[C@H]2O1` [Example 347, (1R,5S,6R)-5-(5-((7-chloropyrido[3,2-d]pyrimidin-4-yl)amino)-2-fluorophenyl)-5-(fluoromethyl)-2-oxa-4-azabicyclo[4.1.0]hept-3-en-3-amine], for which the figures for the IC50 (on Cathepsin D (Cat D); in test [1]; on BACE) were 106 µM, 0.133 µM and 0.0624 µM, respectively.
For the compound `COc1cnc2c(Nc3ccc(F)c([C@@]4(C(F)F)N=C(N)O[C@@H]5C[C@@H]54)c3)nccc2c1` [Example 348, (1R,5S,6R)-5-(difluoromethyl)-5-(2-fluoro-5-((3-methoxy-1,7-naphthyridin-8-yl)amino)phenyl)-2-oxa-4-azabicyclo[4.1.0]hept-3-en-3-amine], the results for the IC50 (at Cathepsin D (Cat D); in test [1]; at BACE) were 738 µM, 0.456 µM and 0.106 µM, respectively.
For `N#Cc1cnc2c(Nc3ccc(Cl)c([C@@]4(C(F)F)N=C(N)O[C@@H]5C[C@@H]54)c3)ncc(F)c2c1` [Example 350, 8-((3-((1R,5S,6R)-3-amino-5-(difluoromethyl)-2-oxa-4-azabicyclo[4.1.0]hept-3-en-5-yl)-4-chlorophenyl)amino)-5-fluoro-1,7-naphthyridine-3-carbonitrile] the same measures were over 14.8 µM, 0.0319 µM and 0.0628 µM.
Take `N#Cc1cnc2c(Nc3ccc(F)c([C@@]4(C(F)F)N=C(N)O[C@@H]5C[C@@H]54)c3)ncc(F)c2c1` [Example 352, 8-((3-((1R,5S,6R)-3-amino-5-(difluoromethyl)-2-oxa-4-azabicyclo[4.1.0]hept-3-en-5-yl)-4-fluorophenyl)amino)-5-fluoro-1,7-naphthyridine-3-carbonitrile]: the IC50 at Cathepsin D (Cat D) is 192 µM; in test [1], 0.0391 µM; against BACE, 0.0593 µM.
For the compound `NC1=N[C@@](c2cc(Nc3ncnc4cc(Cl)cnc34)ccc2F)(C(F)F)[C@H]2C[C@H]2O1` [Example 353, (1R,5S,6R)-5-(5-((7-chloropyrido[3,2-d]pyrimidin-4-yl)amino)-2-fluorophenyl)-5-(difluoromethyl)-2-oxa-4-azabicyclo[4.1.0]hept-3-en-3-amine], the IC50 on Cathepsin D (Cat D) was found to be 141 µM; in test [1], 0.0639 µM; at BACE, 0.0503 µM.
For `COc1cnc2c(Nc3ccc(F)c([C@]4(CF)N=C(N)O[C@H]5C[C@H]54)c3F)nccc2n1` [Example 354, (1S,5R,6S)-5-(2,6-difluoro-3-((2-methoxypyrido[3,4-b]pyrazin-5-yl)amino)phenyl)-5-(fluoromethyl)-2-oxa-4-azabicyclo[4.1.0]hept-3-en-3-amine] the same measures were 292 µM, 12.7 µM and 1.46 µM.
With `COc1cnc2c(Nc3ccc(F)c([C@@]4(CF)N=C(N)O[C@@H]5C[C@@H]54)c3F)nccc2n1` [Example 355, (1R,5S,6R)-5-(2,6-difluoro-3-((2-methoxypyrido[3,4-b]pyrazin-5-yl)amino)phenyl)-5-(fluoromethyl)-2-oxa-4-azabicyclo[4.1.0]hept-3-en-3-amine], the IC50 on Cathepsin D (Cat D) is 2750 µM; in test [1] it was over 40 µM; against BACE it was over 15.6 µM.
For `CC(C)Oc1cnc2c(Nc3cc(Cl)c(F)c([C@@]4(CF)N=C(N)O[C@@H]5C[C@@H]54)c3)nccc2n1` [Example 357, (1R,5S,6R)-5-(3-chloro-2-fluoro-5-((2-isopropoxypyrido[3,4-b]pyrazin-5-yl)amino)phenyl)-5-(fluoromethyl)-2-oxa-4-azabicyclo[4.1.0]hept-3-en-3-amine] the same measures were 323 µM, 0.375 µM and 0.918 µM.
In the case of `Cn1cc2ccnc(Nc3ccc(F)c([C@@]4(C(F)F)N=C(N)O[C@@H]5C[C@@H]54)c3)c2n1` [Example 358], the half-inhibitory concentration (IC50) at Cathepsin D (Cat D) was over 400 µM; in test [1], 2.09 µM; on BACE, 0.134 µM.
As for `NC1=N[C@](CF)(c2cc(Nc3nccc4cc(Cl)cnc34)ccc2Cl)[C@H]2C[C@H]2O1` [Example 359, (1R,5S,6R)-5-(2-chloro-5-((3-chloro-1,7-naphthyridin-8-yl)amino)phenyl)-5-(fluoromethyl)-2-oxa-4-azabicyclo[4.1.0]hept-3-en-3-amine], the half-inhibitory concentration (IC50) at Cathepsin D (Cat D) came to 251 µM; in test [1], 0.0291 µM; against BACE, 0.0656 µM.
For `COc1cnc2c(Nc3ccc(Cl)c([C@@]4(CF)N=C(N)O[C@@H]5C[C@@H]54)c3)nccc2c1` [Example 360, (1R,5S,6R)-5-(2-chloro-5-((3-methoxy-1,7-naphthyridin-8-yl)amino)phenyl)-5-(fluoromethyl)-2-oxa-4-azabicyclo[4.1.0]hept-3-en-3-amine] the same measures were 843 µM, 1.26 µM and 0.139 µM.
In the same order, the values of `NC1=N[C@@](c2cc(Nc3nccc4cc(Cl)cnc34)ccc2F)(C(F)F)[C@H]2C[C@H]2O1` [Example 362, (1R,5S,6R)-5-(5-((3-chloro-1,7-naphthyridin-8-yl)amino)-2-fluorophenyl)-5-(difluoromethyl)-2-oxa-4-azabicyclo[4.1.0]hept-3-en-3-amine] are 400 µM, 0.0335 µM and 0.254 µM.
In the same order, the values of `N#Cc1cnc2c(Nc3ccc(Cl)c([C@@]4(CF)N=C(N)O[C@@H]5C[C@@H]54)c3)ncc(F)c2c1` [Example 363, 8-((3-((1R,5S,6R)-3-amino-5-(fluoromethyl)-2-oxa-4-azabicyclo[4.1.0]hept-3-en-5-yl)-4-chlorophenyl)amino)-5-fluoro-1,7-naphthyridine-3-carbonitrile] are over 44.4 µM, 0.0682 µM and 0.13 µM.
As to `COc1cnc2c(Nc3ccc(F)c([C@@]4(C(F)F)N=C(N)O[C@@H]5C[C@@H]54)c3)ncnc2c1` [Example 364, (1R,5S,6R)-5-(difluoromethyl)-5-(2-fluoro-5-((7-methoxypyrido[3,2-d]pyrimidin-4-yl)amino)phenyl)-2-oxa-4-azabicyclo[4.1.0]hept-3-en-3-amine], the half-inhibitory concentration (IC50) on Cathepsin D (Cat D) is 596 µM; in test [1], 0.224 µM; at BACE, 0.122 µM.
In the same order, the values of `NC1=N[C@@](c2cc(Nc3nccc4nc(C(F)(F)F)cnc34)ccc2F)(C(F)F)[C@H]2C[C@H]2O1` [Example 365, (1R,5S,6R)-5-(difluoromethyl)-5-(2-fluoro-5-((2-(trifluoromethyl)pyrido[3,4-b]pyrazin-5-yl)amino)phenyl)-2-oxa-4-azabicyclo[4.1.0]hept-3-en-3-amine] are over 44.4 µM, 0.205 µM and 0.254 µM.
For `N#Cc1cnc2c(Nc3cc(F)c(F)c([C@]4(C(F)F)N=C(N)O[C@H]5C[C@H]54)c3)ncc(F)c2c1` [Example 366, 8-((3-((1S,5R,6S)-3-amino-5-(difluoromethyl)-2-oxa-4-azabicyclo[4.1.0]hept-3-en-5-yl)-4,5-difluorophenyl)amino)-5-fluoro-1,7-naphthyridine-3-carbonitrile] the same measures were 128 µM, over 13.7 µM and over 16 µM.
For `N#Cc1cnc2c(Nc3cc(F)c(F)c([C@@]4(C(F)F)N=C(N)O[C@@H]5C[C@@H]54)c3)ncc(F)c2c1` [Example 367, 8-((3-((1R,5S,6R)-3-amino-5-(difluoromethyl)-2-oxa-4-azabicyclo[4.1.0]hept-3-en-5-yl)-4,5-difluorophenyl)amino)-5-fluoro-1,7-naphthyridine-3-carbonitrile] the same measures were 103 µM, 0.0515 µM and 0.524 µM.
In the case of `NC1=N[C@@](c2cc(NCC3CCC3)ccc2F)(C(F)F)[C@H]2C[C@H]2O1` [Example 368, (1R,5S,6R)-5-(5-((cyclobutylmethyl)amino)-2-fluorophenyl)-5-(difluoromethyl)-2-oxa-4-azabicyclo[4.1.0]hept-3-en-3-amine], the values for the IC50 (on Cathepsin D (Cat D); in test [1]; on BACE) were 121 µM, 2.74 µM and 1.33 µM, respectively.
In the case of `NC1=N[C@@](c2cc(NCC#Cc3ccccc3)ccc2F)(C(F)F)[C@H]2C[C@H]2O1` [Example 369, (1R,5S,6R)-5-(difluoromethyl)-5-(2-fluoro-5-((3-phenylprop-2-yn-1-yl)amino)phenyl)-2-oxa-4-azabicyclo[4.1.0]hept-3-en-3-amine], the IC50 came out at 19.2 µM at Cathepsin D (Cat D), 6.63 µM in test [1] and 3.02 µM against BACE.
With `NC1=N[C@@](c2cc(NCC3(c4ccc(Cl)cc4)CC3)ccc2F)(C(F)F)[C@H]2C[C@H]2O1` [Example 370, (1R,5S,6R)-5-(5-(((1-(4-chlorophenyl)cyclopropyl)methyl)amino)-2-fluorophenyl)-5-(difluoromethyl)-2-oxa-4-azabicyclo[4.1.0]hept-3-en-3-amine], the IC50 on Cathepsin D (Cat D) was 63.6 µM; in test [1] it was 13.7 µM; against BACE, 8.85 µM.
